From patent US20230077723A1, “N-SUBSTITUTED-3,4-(FUSED 5-RING)-5-PHENYL-PYRROLIDINE-2-ONE COMPOUNDS AS INHIBITORS OF ISOQC AND/OR QC ENZYME” (Scenic Immunology B.V., priority 2019, published 2023) come the findings set out here.

The test system of assay [1] is pyroglutamylated CD47 (pE-CD47) in KBM7 cells. Description: Assay 6 - cell-based potency assay (pE-CD47 CC2C6 staining vs total CD47). Further details: species or system human. The settings on record: Homo sapiens, KBM-7, 72 h, CC2C6 signal, read-out: Cell Pot. Assay No. 6. An outline of the steps:
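KBM7 cells received a 10-point 2-fold compound series for 72 h at 37 °C, then were stained with anti-CD47 clones 2D3 (total) and CC2C6 (pyroglutamylated) and analysed by flow cytometry on DAPI-negative cells. MFI was scaled between wild-type and CD47- or QPCTL-knockout cells; IC50 came from 3-parameter logistic fit of CC2C6 signal, top fixed at 1.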

Assay [2] deals with T1, Recombinant QC enzyme (residues 33-361 of uniprot ID Q16769) (Homo sapiens, UniProt Q16769).
T1 construct: bacterial expression of residues 33-361 of uniprot ID Q16769; His tag (cleaved yes); made in house; host or cells: bacterial expression (pET32a)
As to the kind of experiment: Assay 5 - QC potency, fluorescent enzymatic assay. The settings on record: fluorescent read-out; read-out: QC Pot. Assay No. 5. The format is biochemical. The text has this: Recombinant QC enzyme was produced by bacterial expression of residues 33-361 of uniprot ID Q16769, fused to a His tag, codon optimized and cloned into the pET32a plasmid backbone. After scale-up, expression and lysis, protein was purified by Ni-NTA IMAC, dialysed in the presence of Factor Xa, further purified by Ni-NTA reverse IMAC and finally filtrated for size on a Superdex 200 16/60 column. Final protein was concentrated using a spin concentrator at 10 kDa molecular weight cutoff and formulated in 150 mM NaCl, 50 mM Tris-HCl, 50% Glycerol, pH 8.0.
(§1) Pyroglutamylation was measured by conversion of glutamine-4-amino-7-methylcoumarine (H-Gln-AMC, Bachem) to pyroglutamyl-AMC, which is subsequently a specific substrate for pyroglutamylaminopeptidase (pGAPase, Qiagen), releasing free AMC which can be fluorescently detected. For a typical inhibition assay, 7.5 μL aliquots of threefold dilutions of test compound in 50 mM Tris pH8 buffer were plated in 384-well plates. 15 μL 20 μM h-Gln-AMC (diluted from a 40 mM stock dissolved in 25 mM HEPES using 50 mM Tris-HCl pH 8.0) was added to each well. Finally, 7.5 μL, 3 ng/μL recombinant QC enzyme was added and the reaction mixture was incubated for 1 hour at 37° C. A 5 minute incubation at 98° C. was then performed to denature the QC enzyme and stop the reaction.
(§2) To detect the amount of pyroglutamyl-AMC formed, a 0.125 U/mL pGAPase enzyme diluted in 50 mM Tris-HCl pH 8.0 containing 10 mM dithiothreitol (DTT) solution was prepared. 25 μL of the pyroglutamylation reaction mixture was transferred into an empty plate and to that, 25 μL of the pGAPase enzyme solution was added. Plates were then incubated for 25 minutes at room temperature before fluorescence readings were taken on an Envision2 plate reader with excitation set at 380 nm and emission at 450 nm.
DMSO concentrations during the assay never exceeded 1% and activities were compared to controls containing only the same amount of DMSO and no test compound. Controls were taken along containing pyroglutamylated-AMC (Bachem, dissolved at 10 mM in DMSO) instead of H-Gln-AMC to control for pGAPase inhibition.
IC50 values are calculated using non-linear regression analysis with GraphPad Prism software.

The target of assay [3] is T2, human isoQC (S53-L382) (Homo sapiens, UniProt Q9NXS2).
T2 construct: enzymatically active region of human isoQC (S53-L382; see, e.g., Huang et al., 2011); GST-Enterokinase site (N, cleaved yes); made in house; host or cells: E. coli
Description: Assay 3 - isoQC potency, fluorescent enzymatic assay. Type of assay: biochemical. The settings on record: fluorescent read-out; read-out: isoQc Pot. Assay No. 3. Here is the method:
For this assay specifically, isoQC production was performed slightly different than described in the general methods: The Golgi luminal, enzymatically active region of human isoQC (S53-L382; see, e.g., Huang et al., 2011) was obtained by expression in E. coli of an N-terminally GST Enterokinase and C-terminally 6×His tagged construct in the pET41(+) vector and subsequent purification using Ni-NTA IMAC. Enterokinase digestion ensued, followed by another Ni-NTA IMAC purification, Superdex75 based size exclusion and finally a spin concentration using a 10 kDa molecular weight cutoff. The final protein is formulated in 50 mM Tris-HCl, 150 mM NaCl, 50% Glycerol, pH 7.8.
as §1, with “isoQC” for “QC”
as §2
DMSO concentrations during the assay never exceeded 1% and activities were compared to controls containing only the same amount of DMSO and no test compound. Controls were taken along containing pyroglutamylated-AMC (Bachem, dissolved at 10 mM in DMSO) instead of H-Gln-AMC to control for pGAPase inhibition. IC50 values are calculated using non-linear regression analysis with GraphPad Prism software.

T2 sequence (Q9NXS2 53-382): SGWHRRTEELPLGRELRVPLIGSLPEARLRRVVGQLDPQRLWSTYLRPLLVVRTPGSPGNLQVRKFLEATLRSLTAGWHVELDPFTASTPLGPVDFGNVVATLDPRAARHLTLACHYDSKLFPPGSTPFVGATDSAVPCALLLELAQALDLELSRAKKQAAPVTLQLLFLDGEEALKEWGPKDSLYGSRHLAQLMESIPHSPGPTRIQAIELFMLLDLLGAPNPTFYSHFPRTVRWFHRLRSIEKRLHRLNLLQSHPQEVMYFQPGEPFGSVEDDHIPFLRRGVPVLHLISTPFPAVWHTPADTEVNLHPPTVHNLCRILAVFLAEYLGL
T1 sequence (Q16769 33-361): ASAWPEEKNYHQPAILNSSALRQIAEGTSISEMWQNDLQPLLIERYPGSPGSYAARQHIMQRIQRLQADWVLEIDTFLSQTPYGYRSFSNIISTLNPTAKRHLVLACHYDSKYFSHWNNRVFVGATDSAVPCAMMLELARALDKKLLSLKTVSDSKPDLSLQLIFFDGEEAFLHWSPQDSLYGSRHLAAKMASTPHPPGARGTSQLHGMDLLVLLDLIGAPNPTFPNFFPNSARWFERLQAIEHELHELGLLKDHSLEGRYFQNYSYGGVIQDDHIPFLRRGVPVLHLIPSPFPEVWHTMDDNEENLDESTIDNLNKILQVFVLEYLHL

In the case of `Cc1nn(C)c2c1C(c1ccc(-n3cc(C(F)(F)F)cn3)cc1F)N(c1ccc3[nH]cnc3c1)C2=O` (stereo not drawn) [FRPPO-166], the values for the IC50 in assay [1], in assay [2] and in assay [3] were 1000 to 5000 nM, 100 to 5000 nM and 100 to 5000 nM, respectively.
